Patent US20090215727A1, “INHIBITION OF ATP-MEDIATED, P2X7 DEPENDENT PATHWAYS BY PYRIDOXAL-5-PHOSPHATE AND VITAMIN B6 RELATED COMPOUNDS” (MEDICURE INTERNATIONAL INC., priority 2005, published 2009)
Entries after “also recorded” stand apart in the source; their conditions may differ.

Assays:
HEK 293 cells = experiment: MTT cell viability assay in parent HEK 293 cells; format: cell-based
Method: (§1) Parent (HEK 293) cells, and HEK 293 cells expressing rat P2X7 (HEK 293 P2X7 (rat) cells) were treated with ATP (Sigma, A9062) to determine the effects of ATP on the viability of the cells. Cell viability was determined using an MTT assay (Wen, 2003). Cells were treated with between 0 and 2 μM of ATP. MTT was added to the cell cultures 180 minutes after ATP treatment. The MTT assay was performed 60 minutes after the addition of MTT. Cell viability was directly correlatable to the absorbance of 550 nm light by the cell culture, with a higher absorbance meaning higher cell viability. The cell culture media was removed and the cells were solubilized using DMSO. The absorbance of the solubilized cells was read.
(§2) HEK 293 and HEK 293 P2X7 (rat) cells were treated with 0 to 50 μM of P5P, a vitamin B6 related compound, in sodium salt form (Chemistry Department, CanAm Bioresearch Inc.). Thirty minutes later, cells were treated with 0.4 μM ATP, to determine the effects of ATP on the viability of the MC-1 treated cells. Control cells received sham treatment of P5P, and sham treatment of ATP.
Cell viability was determined using an MTT assay. MTT was added to the cell cultures 180 minutes after ATP treatment. […] Cell viability was directly correlatable to the absorbance of 550 nm light by the cell culture, with a higher absorbance meaning higher cell viability.

[1] = system: IL-1β processing and release from PMA/LPS stimulated THP-1 cells; experiment: ATP-induced processing and release of IL-1β from PMA/LPS stimulated THP-1 cells (human IL-1β ELISA); format: cell-based; settings: 5 mM ATP for one hour; for effect on ATP-induced processing and release of IL-1β: test compound 0.5-150 μM, 30 min pretreatment, IL-1β in media by ELISA
Method: THP-1 non-adherent, monocytic cells (ATCC) were pre-treated with phorbol-12-myristate-13-acetate (PMA), which differentiated the cells into macrophage-like cells. Briefly, approximately 8×10^6 THP-1 cells were harvested, pelleted, resuspended in media to which PMA was added at a final concentration of 0.5 μM. The cells were incubated for 3 hours, then collected, washed, and plated.
The next day, the cells were treated with lipopolysaccharide (LPS) to stimulate IL-1β production. Briefly, the media was removed and replaced with RPI media+10% fetal calf serum containing 100 ng/ml of LPS. Cells were incubated for an additional 24 hours.
Cells were pretreated for 30 minutes, then the media was replaced with media containing 5 mM ATP as well as the test compound. Cells were exposed to ATP for one hour. Media was then collected and the amount of IL-1β in the media was determined using a human IL-1β ELISA (R&D Systems).
Results were expressed as the mean±sem. Statistical analysis was performed using […] (Medistats). […] IL-1β levels were measured in the cell culture media by ELISA and the results are expressed as a percent of the untreated (baseline) controls.

rat P2X7 receptor = target: T1, rat P2X7 receptor (Rattus norvegicus, UniProt Q64663); experiment: MTT cell viability assay in HEK 293 cells stably expressing rat P2X7 (ATP-mediated, P2X7-dependent cell death); format: cell-based; settings: HEK 293 P2X7 (rat) cells
T1 construct: expressed in transfected cells; host or cells: HEK 293
T1 sequence (Q64663 1-595): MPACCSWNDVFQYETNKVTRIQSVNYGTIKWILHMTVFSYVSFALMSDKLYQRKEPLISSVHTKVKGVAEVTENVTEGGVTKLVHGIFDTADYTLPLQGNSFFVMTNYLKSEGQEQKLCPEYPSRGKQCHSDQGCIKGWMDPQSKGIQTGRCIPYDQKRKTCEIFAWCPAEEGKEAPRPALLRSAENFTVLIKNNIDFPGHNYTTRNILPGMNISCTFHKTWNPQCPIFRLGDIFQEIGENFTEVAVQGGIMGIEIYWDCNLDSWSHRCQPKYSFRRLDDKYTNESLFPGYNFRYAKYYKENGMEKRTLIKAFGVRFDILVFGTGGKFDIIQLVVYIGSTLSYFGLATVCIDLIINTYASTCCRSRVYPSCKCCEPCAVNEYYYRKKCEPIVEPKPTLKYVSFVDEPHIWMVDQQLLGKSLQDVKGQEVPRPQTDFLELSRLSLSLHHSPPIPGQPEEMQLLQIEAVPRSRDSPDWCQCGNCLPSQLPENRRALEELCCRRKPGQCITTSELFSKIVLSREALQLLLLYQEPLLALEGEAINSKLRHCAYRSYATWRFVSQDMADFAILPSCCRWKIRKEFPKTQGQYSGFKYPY
Method: HEK 293 cells were stably transfected to express rat P2X7 receptor, using standard tissue culture techniques (Surprenant et al, 1996). The cell line was known to not express any of the other P2X receptors (Schachter et al, 1997). Stable expression of P2X7 was confirmed by Western blot (results not shown).
as §1, §2
Cell viability was determined using an MTT assay. MTT was added to the cell cultures 180 minutes after ATP treatment. The MTT assay was performed 60 minutes after the addition of MTT. Cell viability was directly correlatable to the absorbance of 550 nm light by the cell culture, with a higher absorbance meaning higher cell viability.

P2X7 receptors = target: T2, P2X7 receptors (Rattus norvegicus, UniProt Q64663); experiment: BzATP-mediated, P2X7-dependent cell death (Examples 1-2 repeated with BzATP); format: cell-based; settings: BzATP substituted for ATP; example in present tense
T2 construct: expressed in transfected cells; host or cells: HEK 293
T2 sequence (Q64663 1-595): T1 sequence (Q64663 1-595)
From the text: Examples 1-2 are repeated, substituting BzATP for ATP. BzATP is known to be a specific agonist of P2X7 receptors. This Example yields results consistent with Examples 1-4, further establishing that the pathway utilized is a P2X7 dependent pathway.

IL-1β = experiment: Cytokine response of lipopolysaccharide treated rats (plasma IL-1β); format: in vivo, Sprague-Dawley rats; settings: blood at 240 min, example in present tense
Method: Sprague-Dawley rats weighing approximately 300 g are treated with 1, 3, or 10 mg/kg P5P (or a saline control). Thirty minutes later (t=30), the animals are given a 50 μg/kg intraperitoneal injection of LPS (or a saline control). Temperature of the animals is measured, and a blood sample is collected at 240 minutes post-treatment (t=240).
Blood samples are transferred to heparinized tubes and plasma is separated by centrifugation. Plasma is assayed for IL-1β, [IL-6 and TNF-α].

Molecule: Nc1ncnc2c1ncn2[C@@H]1O[C@H](COP(=O)(O)OP(=O)(O)OP(=O)(O)O)[C@@H](O)[C@H]1O [ATP, adenosine triphosphate]
- cell viability (MTT, absorbance at 550 nm) (HEK 293 cells; parent HEK 293 cells, up to 2 μM ATP, MTT added 180 min after ATP): did not significantly affect
- processing and release of IL-1β into the culture media ([1]; PMA/LPS primed THP-1 cells, versus untreated baseline): significant increase
- ATP concentration from which significant loss in cell viability starts (MTT) (rat P2X7 receptor; 0 to 2 μM ATP tested): ≥ 0.4 µM

Molecule: Cc1ncc(COP(=O)(O)O)c(C=O)c1O [P5P, pyridoxal-5′-phosphate]
- cell viability (MTT) after P5P pretreatment and ATP (HEK 293 cells; HEK 293 cells, 0 to 50 μM P5P 30 min before 0.4 μM ATP): did not have any significant effect
- protection from BzATP-mediated, P2X7-dependent cell death (P2X7 receptors): Protects Cells
- effect on ATP-induced processing and release of IL-1β [1]: uniquely effective; also recorded: significantly inhibited
- processing and release of IL-1β in vivo (plasma) (IL-1β; rats, 1, 3 or 10 mg/kg P5P 30 min before 50 μg/kg i.p. LPS): significantly inhibits
- cell viability (MTT) of ATP treated cells after P5P pretreatment (rat P2X7 receptor; 50 μM P5P half an hour before 0.4 μM ATP): significantly improved
- viability of P5P pretreated, ATP treated cells compared with control cells (rat P2X7 receptor; 50 μM P5P, 0.4 μM ATP, control = sham P5P and sham ATP): no significant difference
- cell viability (MTT) of ATP treated cells after P5P pretreatment (rat P2X7 receptor; 1.5 to 15 μM P5P 30 min before 0.4 μM ATP): did not significantly affect

Molecule: Cc1ncc(CO)c(C=O)c1O [pyridoxal]
- effect on ATP-induced processing and release of IL-1β [1]: not effective; also recorded: no significant effect

Molecule: Cc1ncc(CO)c(CN)c1O [pyridoxamine]
- effect on ATP-induced processing and release of IL-1β [1]: not effective; also recorded: no significant effect

Molecule: Cc1ncc(CO)c(CO)c1O [pyridoxine]
- effect on ATP-induced processing and release of IL-1β [1]: not effective; also recorded: no significant effect

Molecule: lipopolysaccharide [LPS]
- processing and release of IL-1β [IL-6 and TNF-α] into the plasma (IL-1β; rats, 50 μg/kg intraperitoneal LPS): significant increase

Molecule: pyridoxamine phosphate
- effect on ATP-induced processing and release of IL-1β [1]: not effective; also recorded: no significant effect
